Entries after “also recorded” stand apart in the source; their conditions may differ.
What was measured:
Bovine Respiratory Virus = assay: In vivo bovine feedlot study (Example 6); parameters: species or system calves
Procedure: A similar in vivo bovine study as in Example 5 was conducted with one hundred and fifty-eight (158) calves. The calves were shipped into a commercial feedlot, wherein some of the animals at the feedlot were infected with BRV. The […] calves were treated with either: (1) 4 minutes of approximately 160-260 ppm nitric oxide gas (30-60 breaths); or (2) conventional antibiotic, antiviral and immunization medications. 42 calves were treated with gNO, while 116 calves were treated with conventional antibiotics.

[1] = tested on: influenza A/Victoria/H3N2; assay: Plaque assay in MDCK cells with gNO-exposed virus, several concentrations and dosing techniques (Example 2); format: cell-based
influenza A virus = assay: Plaque assay in MDCK cells with virus exposed to nitric oxide gas (Example 1); format: cell-based; settings: virus exposed to 160 ppm nitric oxide gas for 1, 2 and 3 hours; vs air control; FIG. 1
[2] = tested on: Highly Pathogenic Avian Influenza (HPAI) H7N3; format: cell-based
[3] = tested on: Bovine Respiratory Disease (BRD)
influenza A/H3N2 = assay: Plaque assay in MDCK cells with gNO-exposed virus (Example 2); format: cell-based

How did the “calves exhibiting clinical signs of infection (Bovine Respiratory Virus)” value (Bovine Respiratory Virus; after 15 days, 4 minutes of approximately 160-260 ppm nitric oxide gas (30-60 breaths), 4/42) turn out when [N]=O [gNO, Nitric oxide] was run?
The value was 9.5%.

What about the “effectiveness as antiviral agent reducing infectivity relative to conventional vaccines, antiviral agents and antibiotics” value (Bovine Respiratory Virus; feedlot calves, 15 days) of the same compound?
Its value is “almost twice as effective”.

And the “infectivity of influenza A/Victoria/H3N2” value ([1]; 40 ppm gNO continuously over 4 hours, FIG. 10)?
The value was “no effect”.

What about the “infectivity of influenza A/Victoria/H3N2” value ([1]; 80 ppm gNO continuously for 4 hours, FIG. 7, 10) of the same compound?
Its value is “not effective; also recorded: no effect”.

What about the “infectivity of influenza A/Victoria/H3N2” value ([1]; 160 ppm gNO and above (160 ppm and 800 ppm), continuously over 4 hours, vs controls and lower concentrations, FIG. 11) of the same compound?
The value was “effective in reducing the infectivity”.

What about the “concentration of influenza A/Victoria/H3N2” value ([1]; 160 ppm gNO for 4 continuous hours, FIG. 8) of the same compound?
Its value is “effective in reducing the concentration of influenza A/Victoria/H3N2; also recorded: significant effect”.

And the “infectivity of influenza A/Victoria/H3N2” value ([1]; 800 ppm gNO continuously over 4 hours, FIG. 11)?
Its value is “no real improved effect compared to 160 ppm”.

And the “infectivity of influenza A/Victoria/H3N2” value ([1]; intermittent 160 ppm gNO, 30 minutes once every hour for 4 hours, FIG. 12)?
Its value is “more effective than the single 30 minute exposure; also recorded: effective as an anti-infective agent against influenza A/Victoria/H3N2”.

What about the “concentration of influenza A/Victoria/H3N2” value ([1]; single 30 minute exposure to 160 ppm gNO, tracked over 4 hours, FIG. 9, 12) of the same compound?
Its value is “effective in reducing concentration of influenza A/Victoria/H3N2; also recorded: as effective as three (3) thirty (30) minute doses of gNO”.

And the “influenza A virus in MDCK cell cultures (plaques)” value (influenza A virus)?
Its value is “significantly less influenza A virus as compared to the air control”.

What about the “concentration of HPAI H7N3” value [2] of the same compound?
The value was “about 330 PFU/mL”.

What about the “infectivity of HPAI H7N3, continuous exposure compared with single treatment” value [2] of the same compound?
Its value is “comparatively better than the single treatment”.

What about the “infectivity of HPAI H7N3” value ([2]; after 3 hours) of the same compound?
The value was “under 50 PFU/mL”.

And the “clinical scores (industry standard signs)” value ([3]; 160 ppm gNO, prophylactic vs early detection group, FIG. 17)?
Its value is “more effective in achieving low clinical scores for the prophylactic group than for the early detection group”.

And the “IRT Temperature” value ([3]; 160 ppm gNO, prophylactic vs early detection group, FIG. 18)?
The value was “more effective in achieving low IRT temperatures for the prophylactic group than for the early detection group”.

And the “calves' temperatures and clinical scores” value ([3]; NO given at Early Detection (IRT) or at Clinical Detection)?
The value was “rapidly resolved”.

What about the “infection after 6 months” value ([3]; all NO treated animals regardless of dosing/timing, induction herd: 13 out of 15 required antibiotic treatment) of the same compound?
Its value is “none of the NO treated animals demonstrated infection”.

And the prevention of infection ([3]; bovine, in vivo)?
The prevention of infection was “effective in preventing infection”.

What about the safety of delivery ([3]; bovine, in vivo) of the same compound?
The safety of delivery was “delivered safely without incident”.

And the “Mean Temperature (IRT)” value ([3]; prophylactic group, mean over 10 days, […], FIG. 16)?
The value was “roughly 36.1 °C”.

And the “infectivity of influenza A/H3N2” value (influenza A/H3N2; 80 ppm gNO continuously for 4 hours, FIG. 4)?
Its value is “not as effective as the 160 ppm concentration”.

And the “concentration of influenza A/H3N2 (viruses capable of infecting a cell)” value (influenza A/H3N2; 160 ppm gNO for 1, 2 and 3 hours, vs room air control, FIG. 2)?
The value was “significantly reduced the concentration of influenza A/H3N2”.

What about the “concentration of influenza A/H3N2” value (influenza A/H3N2; single 30 minute exposure to 160 ppm gNO, plaque assay to 20 hours after exposure, FIG. 5) of the same compound?
The value was “decreases concentration of influenza A/H3N2 over 20 hours”.

From patent US20070116785A1, “Nitric oxide as an anti-viral agent, vaccine and vaccine adjuvant” (priority 2005, published 2007)
